The test system of assay [1] is BMDMs. Briefly: A1155463 in-vitro training assay in BMDMs. In kind it is cell-based, mouse. To be noted: 24 hours after challenge, vs PBS-trained. The protocol:
(§1) FIGS. 5A-5F: Testing A1155463 as an inducer of trained immunity (TI) in vitro. FIG. 5A is a schematic diagram for in-vitro TI assay in bone marrow-derived macrophages (BMDMs). FIG. 5B is a graph showing interleukin-6 (IL-6) levels (expressed in picograms per milliliter (pg/ml) 24 hours (h) post PAM3-CSK4 (Pam3) challenge in an in-vitro TI assay in BMDMs trained with either phosphate buffered saline (PBS) (black) or A1155463 (pink); n=15. FIG. 5C is a graph showing tumor necrosis factor alpha (TNF-α) levels (pg/ml) 24 h post Pam3 challenge in an in-vitro TI assay in BMDMs trained with either PBS (black) or A1155463 (pink); n=10. FIG. 5D is a graph showing IL-6 levels (pg/ml) 24 h post-stimulation with PBS (black) or A1155463 (pink); n=3. FIG. 5E is a graph showing the fold change in TNF-α following Pam3 challenge in BMDMs trained with A1155463 pre-treated with PBS, MTA (histone methyl transferase inhibitor), EGCG (histone acetyltransferase inhibitor) or 2-DG (glycolysis inhibitor); n=15, significance compared with PBS control of each inhibitor. FIG. 5F is a graph of IL-6 levels (pg/ml) 24 h post Pam3 challenge in an in-vitro TI assay in BMDMs trained with either PBS (black) or A1155463 (pink) pretreated with varying concentrations of 2-DG; n=5.
A1155463 is a commercially available inhibitor of the B-cell lymphoma-extra large (Bcl-xL) protein. […]

The test system of assay [2] is RAW-Blue cells. Kind of assay: RAW-Blue NF-kb reporter assay. In kind it is cell-based. To be noted: after 18 hours. On the procedure: FIG. 8: RAW-Blue assay: RAW-Blue cells (100,000 cells per well) were incubated with PBS (black), A1155463 (pink) or 100 ng/mL LPS (green) for 18 h.
Bcl-xL is an anti-apoptotic protein with some role in mediating inflammatory reactions.^32,33 Most documented inducers of trained immunity elicit an initial immune response upon administration. However, A1155463 has never been reported elicit inflammatory responses in vitro. To test if A1155463 elicited an enhanced innate response on its own in vitro, supernatant from BMDMs cultured with A1155463 for 24 hours was analyzed. […] The non-immunogenicity of A1155463 was validated using an NF-kb reporter cell line. […] Taken together, this evidence supports that A1155463 is a non-immunogenic trained immunity inducing molecule.

Assay [3] has as its system bone-marrow cells. Briefly: Bone-marrow cells of trained mice challenged ex-vivo with LPS. In kind it is in vivo, mouse. To be noted: 5 ng/mL LPS ex vivo, 24 hours. On the procedure: FIGS. 6A-6H: in-vivo A1155463 trained immunity (TI) assays. FIG. 6A is a schematic showing the in-vivo training schedule. Mice were dosed intraperitoneally (i.p.) with training material (PBS or A1155463 at 15 milligrams per kilogram body weight (mg/kg)) daily for six days. Mice were challenged with […] lipopolysaccharide (LPS) on day 7. FIG. 6B is a graph showing the interleukin-6 (IL-6) and tumor necrosis factor-alpha (TNF-α) levels (expressed as picograms per milliliter (pg/ml) 1 hour (h) following LPS challenge with either PBS (black) or A1155463 (pink); n=5. FIG. 6C is a graph showing the percentage (%) of small peritoneal macrophages (SPMs) from the peritoneal cavity of PBS (black) or A1155463 trained (pink) mice 2 h post LPS challenge on day 7. FIG. 6D is a graph showing the IL-6 levels (pg/ml) from bone-marrow cells isolated on day 7 challenged ex-vivo with LPS from either PBS (black) or A1155463 (pink) trained mice; n=3. FIG. 6E is a schematic showing the in-vivo training schedule for B16.F10 tumor challenge. […]
Apart from increased systemic cytokines, recruitment of monocyte-derived small peritoneal macrophages (SPMs) is another hallmark of enhanced training. […] Bone-marrow cells from PBS or A1155463 trained cells were challenged with 5 ng/mL of LPS and the supernatant was analyzed 24 hours later. […]

The test system of assay [4] is BMDMs. Kind of assay: A1155463 training with inhibitor pre-treatment (MTA, EGCG, 2-DG). In kind it is cell-based, mouse. On the procedure:
as §1
After ruling out apoptosis and innate inflammation, an additional study was performed to attempt to determine the mechanism of action of A1155463-induced training in BMDMs. Training induces epigenetic and metabolic rewiring of macrophages which can be probed using small molecule inhibitors of various pathways.^16 Epigenetic changes are associated with increased histone methylation and acetylation, promoting transcription and translation of proinflammatory cytokines in response to pathogenic stimuli. Metabolic changes alter cellular metabolism, mostly favoring glycolysis, to meet the higher energy requirements of a trained cell. […]

For `CN(C)CC#Cc1ccc(OCCCc2sc(N3CCc4cccc(C(=O)Nc5nc6ccccc6s5)c4C3)nc2C(=O)O)c(F)c1` [A1155463, 2-(8-(benzo[d]thiazol-2-ylcarbamoyl)-3,4-dihydroisoquinolin-2(1H)-yl)-5-(3-(4-(3-(dimethyl-amino)prop-1-yn-1-yl)-2-fluorophenoxy)propyl)thiozole-4-carboxylic acid], in assay [1], the “increase in IL-6 following Pam3 challenge” value was “approximately 1.2 fold” and the “increase in TNF-α following Pam3 challenge” value is “approximately 1.2 fold”. Moreover, the “NF-kb reporter signal vs PBS-treated cells” value in assay [2] is listed as “No significant difference”. In addition, the “increase in bone-marrow derived IL-6 levels vs untrained control” value in assay [3] is given as “approximately 5 fold”. Besides, in assay [4] (30 min pre-treatment), the “training after epigenetic small molecule inhibitors (MTA, EGCG)” value is given as “no significant difference”. In assay [4] (different concentrations of 2-DG), the “Pam3 induced IL-6 levels with 2-DG” value was “significant decrease”. In addition, the “reduction in the TNF-α level following Pam3 challenge by 2DG pre-treatment” value in assay [4] (glycolysis inhibitor 2DG) was determined as 50%.

For the origin of these results see US20240398785A1, “SMALL MOLECULE DRUGS FOR THE INDUCTION OF TRAINED IMMUNITY” (THE UNIVERSITY OF CHICAGO, priority 2023, published 2024).
